Results published in ChEMBL document CHEMBL1123573, “Design and synthesis of peptide derivatives of a 3-deoxy-D-manno-2-octulosonic acid (KDO) analogue as novel antibacterial agents acting upon lipopolysaccharide biosynthesis” (1987).
≈ marks a conversion by molar mass, not a printed value.

Assays:
[1] = tested on: Salmonella typhimurium; test: In vitro testing for minimum inhibitory concentration against Salmonella Typhimurium LT2 168; assay type: functional, Salmonella enterica subsp. enterica serovar Typhimurium
[2] = tested on: Salmonella typhimurium; test: In vitro testing for minimum inhibitory concentration against Salmonella Typhimurium SL 1102; assay type: functional, Salmonella enterica subsp. enterica serovar Typhimurium
[3] = tested on: Escherichia coli; test: In vitro testing for minimum inhibitory concentration against Escherichia coli ATCC 11303.; assay type: functional
[4] = Salmonella enterica subsp. enterica serovar Typhimurium

| Molecule | MIC ([1]; Salmonella enterica) [µM] | MIC ([2]; Salmonella enterica) [µM] | MIC [3] [µM] | MIC [1, 4] [µM] | MIC [2, 4] [µM] |
| --- | --- | --- | --- | --- | --- |
| CC1(C)S[C@@H]2[C@H](NC(=O)[C@H](N)c3ccccc3)C(=O)N2[C@H]1C(=O)O [AMPICILLIN] | 0.3 (≈ 0.105 µg/mL) | 2 (≈ 0.699 µg/mL) | 1 (≈ 0.349 µg/mL) |  |  |
| C[C@H](N)C(=O)N[C@@H](C)C(=O)NC[C@H](O)[C@H]1O[C@H](C(=O)O)C[C@@H](O)[C@H]1O | 60 (≈ 21.8 µg/mL) | 4 (≈ 1.45 µg/mL) | 4 (≈ 1.45 µg/mL) |  |  |
| GENTAMICIN |  |  | < 0.05 | < 0.05 | < 0.05 |
| CC(N)C(=O)NCC(O)C1OC(C(=O)O)CC(O)C1O (stereo not given) | > 2000 | > 2000 | > 2000 |  |  |
| CSCCC(N)C(=O)NCC(O)C1OC(C(=O)O)CC(O)C1O (stereo not given) | > 2000 | > 2000 | > 2000 |  |  |
